Assay results published in publication PMC6982817, “Substituted N-(Pyrazin-2-yl)benzenesulfonamides; Synthesis, Anti-Infective Evaluation, Cytotoxicity, and In Silico Studies” (Molecules, 2019).
Values after ≈ are worked out from the molar mass of the structure shown. Where two headings read alike, the source gives them in different places.

Key:
[1] = tested on: M. avium ssp. avium CNCTC My 80/72 (ATCC 15769); test: Antimycobacterial microplate alamar blue assay, M. avium; type: cell-based, Mycobacterium avium; details: for MIC: Mycobacterium avium
[2] = tested on: Mycobacterium smegmatis DSM 43465 (ATCC 607); test: Antimycobacterial microdilution assay, M. smegmatis; type: cell-based; details: Middlebrook 7H9 broth, resazurin after 48 hours; for MIC: Mycolicibacterium smegmatis, 48 h, read-out: Antimycobacterial Activity MIC M. smeg
[3] = tested on: Mycobacterium aurum DSM 43999 (ATCC 23366); test: Antimycobacterial microdilution assay, M. aurum; type: cell-based; details: Middlebrook 7H9 broth, resazurin after 72 hours; for MIC: Mycolicibacterium aurum, 72 h
[4] = tested on: M. kansasii CNCTC My 235/80 (ATCC 12478); test: Antimycobacterial microplate alamar blue assay, M. kansasii; type: cell-based, Mycobacterium kansasii; details: Mycobacterium kansasii
[5] = tested on: Mycobacterium tuberculosis H37Rv CNCTC My 331/88 (ATCC 27294); test: Antimycobacterial microplate alamar blue assay, M. tuberculosis H37Rv; type: cell-based; details: for MIC: Mycobacterium tuberculosis
[6] = tested on: four Gram-positive and four Gram-negative bacterial strains; test: Antibacterial screening, microdilution broth, panel of eight strains; type: cell-based; details: concentration scale 500–0.97 μM
[7] = tested on: Lichtheimia corymbifera CCM 8077; test: Antifungal microdilution broth, L. corymbifera; type: cell-based; details: CCM8077, 48 h, read-out: MIC against Lichtheimia corymbifera
[8] = tested on: C. tropicalis CCM 8264 (ATCC 750); test: Antifungal microdilution broth, C. tropicalis; type: cell-based; details: Candida tropicalis, 48 h; read-out: MIC against C. tropicalis
[9] = tested on: C. krusei CCM 8271 (ATCC 6258); test: Antifungal microdilution broth, C. krusei; type: cell-based, Candida krusei; details: Pichia kudriavzevii, 48 h; read-out: MIC against C. krusei
[10] = tested on: C. parapsilosis CCM 8260 (ATCC 22019); test: Antifungal microdilution broth, C. parapsilosis; type: cell-based, Candida parapsilosis; details: Lodderomyces parapsilosis, 48 h; read-out: MIC against C. parapsilosis
[11] = tested on: Trichophyton interdigitale CCM 8377 (ATCC 9533); test: Antifungal microdilution broth, T. interdigitale; type: cell-based; details: 72 h, read-out: MIC against Trichophyton interdigitale
[12] = tested on: Aspergillus fumigatus ATCC 204305; test: Antifungal microdilution broth, A. fumigatus; type: cell-based; details: ATCC204305, 48 h, read-out: MIC against Aspergillus fumigatus
[13] = tested on: Candida albicans CCM 8320 (ATCC 24433); test: Antifungal microdilution broth, C. albicans; type: cell-based; details: 48 h, read-out: MIC against Candida albicans
[14] = tested on: Aspergillus flavus CCM 8363; test: Antifungal microdilution broth, A. flavus; type: cell-based; details: CCM8363, 48 h, read-out: MIC against Aspergillus flavus
[15] = tested on: Mycobacterium tuberculosis H37Rv CNCTC My 331/88 (ATCC 27294); details: cited from earlier work; for Antimycobacterial Activity MIC against Mtb H37Rv, Amide: previously published pyrazinecarboxamides, methodology not identical; for Antimycobacterial Activity MIC against Mtb H37Rv, Retro-amide: previously published N-pyrazinylbenzamides
HepG2 cells = details: cited from earlier work
[16] = tested on: Staphylococcus epidermidis 112-2016; test: Antibacterial microdilution broth, S. epidermidis; type: cell-based; details: Staphylococcus epidermidis, 1122016, 48 h; read-out: MIC against Staphylococcus epidermidis
[17] = tested on: Pseudomonas aeruginosa CCM 3955 (ATCC 27853); test: Antibacterial microdilution broth, P. aeruginosa; type: cell-based; details: 48 h, read-out: MIC against Pseudomonas aeruginosa
[18] = tested on: Staphylococcus aureus methicillin-resistant CCM 4750 (ATCC 43300); test: Antibacterial microdilution broth, MRSA; type: cell-based; details: 48 h, read-out: MIC against Staphylococcus aureus methicillin resistant
[19] = tested on: Escherichia coli CCM 3954 (ATCC 25922); test: Antibacterial microdilution broth, E. coli; type: cell-based; details: 48 h, read-out: MIC against Escherichia coli
[20] = tested on: Klebsiella pneumoniae 64-2016; test: Antibacterial microdilution broth, K. pneumoniae; type: cell-based; details: Klebsiella pneumoniae, 642016, 48 h; read-out: MIC against Klebsiella pneumonia
[21] = tested on: Staphylococcus aureus CCM 4223 (ATCC 29213); test: Antibacterial microdilution broth, S. aureus; type: cell-based; details: 48 h, read-out: MIC against Staphylococcus aureus
[22] = tested on: Enterococcus faecalis CCM 4224 (ATCC 29212); test: Antibacterial microdilution broth, E. faecalis; type: cell-based; details: 48 h, read-out: MIC against Enterococcus faecalis
[23] = tested on: Serratia marcescens 62-2016; test: Antibacterial microdilution broth, S. marcescens; type: cell-based; details: Serratia marcescens, 622016, 48 h; read-out: MIC against Serratia marcescens
in vitro = details: human
physchem [24] = test: physchem
Description: (§1) Three compounds 6b, 9b and 13b were selected and their pKa values were determined experimentally using potentiometric and absorbance methods (Table 2).
(§2) For the spectrophotometric method, 1 μM solution of the compound in question was prepared in methanol. The spectra of the sample at several (at least seven) different pH values were measured against blank (water) using a Helios spectrophotometer (Unicam Cambridge). The pH valued covered the region in which all sample molecules were converted from ionized to molecular form or vice versa. Each cuvette contained 200 μL of the sample solution and 1.8 mL of the corresponding buffer. The pH values used and the absorbances allowed us to calculate the pKa of the sample according to the following equation: pKa=pH+log(Ai−A/A−Au) where A is the absorbance of the compound at the corresponding buffer, Ai is the absorbance of the ionized state of the compound and Au is the absorbance of the unionized state. The final pKa was the average of all the pKa at different pH values. For the potentiometric measurements, 1 μM solution of the compound in question was prepared in 3:2 water:methanol, with the addition of 100 μL of 0.1% NaOH. Then small amounts (100 μL) of 0.01% HCl were added repeatedly and the pH was measured each time using a pH meter (inoLab® pH 7110 Czech Republic). The inflection point of the titration curve determined the pKa.

physchem [25] = test: physchem; remark: listed apart in the source
Description: as §1, §2

[26] = ATCC15769, pH 6.6, Middlebrook 7H9 broth pH 6.6, alamar blue, read-out: Antimycobacterial Activity MIC M. avium
[27] = ATCC12478, molar value printed beside μg/mL in text, read-out: MIC M. kansasii
[28] = ATCC12478, pH 6.6, Middlebrook 7H9 broth pH 6.6, alamar blue, read-out: Antimycobacterial Activity MIC M. kansasii
[29] = pH 6.6, Middlebrook 7H9 broth pH 6.6, alamar blue, read-out: Antimycobacterial Activity MIC Mtb H37Rv
[30] = Middlebrook 7H9 broth pH 6.6, alamar blue

Compound: Cc1cc(NS(=O)(=O)c2ccc(N)cc2)no1 [Sulfamethoxazole, 4-amino-N-(5-methylisoxazol-3-yl)benzenesulfonamide, reference compound]
- MIC ([1]; ATCC15769, molar value printed beside μg/mL in text, read-out: MIC M. avium): 49 µM
- MIC [1, 26]: 12.5 µg/mL
- MIC [2]: 250 µg/mL (≈ 987 µM)
- MIC [3]: ≥ 500 µg/mL
- MIC [4, 27]: 12 µM
- MIC [4, 28]: 3.13 µg/mL
- MIC [5, 29]: 3.13 µg/mL
- MIC ([5]; read-out: MIC Mtb H37Rv): 12 µM
- antibacterial activity MIC [6]: not active against any of the tested bacterial strains

Compound: C[C@@H](c1ncncc1F)[C@](O)(Cn1cncn1)c1ccc(F)cc1F [voriconazole]
- MIC [7]: > 16 µg/mL
- MIC [8]: > 16 µg/mL
- MIC [9]: 0.5 µg/mL (≈ 1.43 µM)
- MIC [10]: 8 µg/mL (≈ 22.9 µM)
- MIC [11]: > 16 µg/mL
- MIC [12]: 1 µg/mL (≈ 2.86 µM)
- MIC [13]: > 16 µg/mL
- MIC [14]: > 16 µg/mL

Compound: O=C(Nc1ccccc1)c1cnccn1 [Amide R^1 H R^2 H]
- Antimycobacterial Activity MIC against Mtb H37Rv, Amide [15]: 100 µg/mL

Compound: O=C(Nc1cncc(Cl)n1)c1ccccc1 [Retro-amide R^1 6-Cl R^2 H]
- Antimycobacterial Activity MIC against Mtb H37Rv, Retro-amide [15]: 25 µg/mL

Compound: O=C(Nc1ccccc1)c1cncc(Cl)n1 [Amide R^1 6-Cl R^2 H]
- Antimycobacterial Activity MIC against Mtb H37Rv, Amide [15]: >100 µg/mL

Compound: NC(=O)c1cnccn1 [PZA, reference compound]
- MIC [1, 26]: > 100 µg/mL
- MIC [2]: ≥ 500 µg/mL
- IC50 (HepG2 cells): > 10000 µM
- MIC [3]: ≥ 500 µg/mL
- MIC [4, 28]: > 100 µg/mL
- MIC [5, 29]: > 100 µg/mL

Compound: CNC(C)C1CCC(N)C(OC2C(N)CC(N)C(OC3OCC(C)(O)C(NC)C3O)C2O)O1 (stereo not drawn) [gentamicin]
- MIC [16]: > 8 µg/mL
- MIC [17]: 0.5 µg/mL (≈ 1.05 µM)
- MIC [18]: 16 to 32 µg/mL (≈ 33.5 to 67 µM)
- MIC [19]: 1 to 2 µg/mL (≈ 2.09 to 4.19 µM)
- MIC [20]: > 8 µg/mL
- MIC [21]: 1 µg/mL (≈ 2.09 µM)
- MIC [22]: 8 µg/mL (≈ 16.8 µM)
- MIC [23]: 2 µg/mL (≈ 4.19 µM)

Compound: Cc1cc(C)c(S(=O)(=O)Nc2cncc(Cl)n2)c(C)c1 [Compound 9b, N-(6-chloropyrazin-2-yl)-2,4,6-trimethylbenzenesulfonamide]
- MIC [1, 26]: > 100 µg/mL
- IC50 at 24 h (in vitro): 180 µM
- MIC [2]: ≥ 500 µg/mL
- pKa (physchem [24]): 6.38
- melting point: 179.7 to 180.2 °C
- pKa (physchem [25]): 6.32
- MIC [3]: ≥ 500 µg/mL
- MIC [4, 28]: 50 µg/mL
- MIC [5, 29]: > 100 µg/mL

Compound: COc1ccc(S(=O)(=O)Nc2cncc(Cl)n2)cc1 [Compound 6b, N-(6-chloropyrazin-2-yl)-4-methoxybenzenesulfonamide]
- MIC [1, 26]: > 100 µg/mL
- IC50 at 24 h (in vitro): > 1000 µM
- MIC [2]: ≥ 500 µg/mL
- pKa (physchem [24]): 7.21
- pKa (physchem [25]): 6.95
- MIC [3]: ≥ 500 µg/mL
- MIC [4, 28]: 100 µg/mL
- MIC [5, 29]: > 100 µg/mL

Compound: O=S(=O)(Nc1cncc(Cl)n1)c1ccc2ccccc2c1 [Compound 13b, N-(6-chloropyrazin-2-yl)naphthalene-2-sulfonamide]
- MIC [1, 26]: > 100 µg/mL
- IC50 at 24 h (in vitro): > 1000 µM
- MIC [2]: 125 µg/mL (≈ 391 µM)
- pKa (physchem [24]): 5.75
- melting point: 204.6 to 207 °C
- pKa (physchem [25]): 5.63
- MIC [3]: 250 µg/mL (≈ 782 µM)
- MIC [4, 28]: 50 µg/mL
- MIC [5, 29]: 50 µg/mL

Compound: C[C@@H]1[C@H](O)[C@@H](C)/C=C/C=C/C=C/C=C/C=C/C=C/C=C/[C@H](O[C@@H]2O[C@H](C)[C@@H](O)[C@H](N)[C@@H]2O)C[C@@H]2O[C@](O)(C[C@@H](O)C[C@@H](O)[C@H](O)CC[C@@H](O)C[C@@H](O)CC(=O)O[C@H]1C)C[C@H](O)[C@H]2C(=O)O [amphotericin B]
- MIC [7]: 0.5 µg/mL (≈ 0.541 µM)
- MIC [8]: 1 µg/mL (≈ 1.08 µM)
- MIC [9]: 1 µg/mL (≈ 1.08 µM)
- MIC [10]: 0.5 µg/mL (≈ 0.541 µM)
- MIC [11]: 2 µg/mL (≈ 2.16 µM)
- MIC [14]: 8 µg/mL (≈ 8.66 µM)

Compound: COc1ccc(NC(=O)c2cnccn2)cc1 [Amide R^1 H R^2 4-OCH3]
- Antimycobacterial Activity MIC against Mtb H37Rv, Amide [15]: 25 µg/mL

Compound: NNC(=O)c1ccncc1 [INH, reference compound]
- Antimycobacterial Activity MIC M. avium [1, 30]: 12.5 µg/mL
- MIC [1, 26]: 6.25 to 12.5 µg/mL
- IC50 (HepG2 cells): 79000 µM
- MIC [4, 27]: 182 µM
- Antimycobacterial Activity MIC Mtb H37Rv [5, 30]: 0.2 µg/mL
- MIC [5, 29]: 0.1 to 0.2 µg/mL

Compound: COc1ccc(C(=O)Nc2cnccn2)cc1 [Retro-amide R^1 H R^2 4-OCH3]
- Antimycobacterial Activity MIC against Mtb H37Rv, Retro-amide [15]: >100 µg/mL

Compound: O=C(Nc1cnccn1)c1ccccc1 [Retro-amide R^1 H R^2 H]
- Antimycobacterial Activity MIC against Mtb H37Rv, Retro-amide [15]: >100 µg/mL

Compound: O=C(O)c1cn(C2CC2)c2cc(N3CCNCC3)c(F)cc2c1=O [CPX]
- MIC [16]: > 1.02 µg/mL
- MIC [17]: 0.128 µg/mL (≈ 0.386 µM)
- Antimycobacterial Activity MIC M. smeg [2]: 0.125 µg/mL
- MIC [2]: 0.0625 to 0.125 µg/mL (≈ 0.189 to 0.377 µM)
- MIC [18]: 0.128 µg/mL (≈ 0.386 µM)
- MIC [19]: 0.008 µg/mL (≈ 0.0241 µM)
- Antimycobacterial Activity MIC M. aurum [3]: 0.008 µg/mL
- MIC [3]: 0.00781 to 0.0156 µg/mL (≈ 0.0236 to 0.0472 µM)
- MIC [20]: > 1.02 µg/mL
- MIC [21]: 0.128 to 0.256 µg/mL (≈ 0.386 to 0.773 µM)
- MIC [22]: 0.512 µg/mL (≈ 1.55 µM)
- MIC [23]: 0.256 µg/mL (≈ 0.773 µM)
